Results as given in ChEMBL document CHEMBL5584334, “Discovery of a Covalent Inhibitor of Pro-Caspase-1 Zymogen Blocking NLRP3 Inflammasome Activation and Pyroptosis” (J Med Chem, 2024).
The source made the active and inactive calls. The rule behind the calls is not given here. Residues, ends and D or L forms follow the SMILES beside them. *: point of attachment. Cbz = O=C(OCc1ccccc1)*; CH2F = FC*

Assays:
[1] = target: T1, Caspase-1 (Homo sapiens) (UniProt P29466); test: Inhibition of caspase-1 activity (unknown origin); conditions: dose 50-300 µM
T1 sequence (whole entry): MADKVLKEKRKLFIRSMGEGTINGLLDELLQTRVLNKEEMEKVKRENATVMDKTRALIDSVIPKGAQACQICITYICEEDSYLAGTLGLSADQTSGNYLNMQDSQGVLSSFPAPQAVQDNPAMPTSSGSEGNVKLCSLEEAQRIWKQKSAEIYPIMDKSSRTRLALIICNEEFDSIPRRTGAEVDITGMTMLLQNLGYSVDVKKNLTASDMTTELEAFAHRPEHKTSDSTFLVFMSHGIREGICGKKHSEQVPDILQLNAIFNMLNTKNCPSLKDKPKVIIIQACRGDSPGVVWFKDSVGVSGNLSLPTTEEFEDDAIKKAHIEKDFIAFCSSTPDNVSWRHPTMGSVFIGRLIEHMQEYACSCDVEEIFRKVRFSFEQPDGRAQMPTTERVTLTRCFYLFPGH

[2] = target: NFU1 iron-sulfur cluster scaffold homolog, mitochondrial (Mus musculus) (UniProt Q9QZ23); test: Binding affinity to Nfu1 in mouse J774.A1 cells lysate by mass-spectrophotometric assay; format: subcellular
[3] = tested on: J774.A1; test: Binding affinity to pro-caspase 1 in mouse J774.A1 cell lysates at 1 to 2 uM incubated for 2 hrs by pull-down assay; format: subcellular; conditions: dose 1-2 µM
[4] = tested on: J774.A1; test: Binding affinity to pro-caspase 1 in mouse J774.A1 cells by Western blotting analysis; format: cell-based
[5] = tested on: J774.A1; test: Binding affinity to pro-caspase 1 in mouse J774.A1 cells at 50 uM pretreated with LPS for 3 hrs and nigericin stimulation for 45 mins followed by compound addition by pull-down assay; format: cell-based
[6] = target: Thioredoxin (Mus musculus) (UniProt P10639); test: Binding affinity to Txn in mouse J774.A1 cells lysate by mass-spectrophotometric assay; format: subcellular
[7] = tested on: J774.A1; test: Inhibition of IL-1beta release in mouse J774.A1 cells at 20 uM pretreated with LPS for 3 hrs followed by compound addition for 30 mins and nigericin stimulation for 45 mins; format: functional, cell-based; conditions: time 75.0 min
[8] = tested on: J774.A1; test: Binding affinity to pro-caspase 1 in mouse J774.A1 cell lysates at 1 to 2 uM incubated for 2 hrs in presence of 1'-benzyl 6-(tert-butyl) (1R,4R,6R)-4-isothiocyanato-5'-methoxy-2'-oxospiro[cyclohexane-1,3'-indolin]-2-ene-1',6-dicarboxylate by pull-down assay; format: subcellular; conditions: dose 1-2 µM
[9] = target: T2, Caspase-3 (Mus musculus) (UniProt P70677); test: Inhibition of cisplatin induced caspase-3 activation in mouse J774.A1 cells at 0.5 uM preincubated for 30 mins followed by cisplatin addition and incubated overnight; format: cell-based
T2 sequence (whole entry): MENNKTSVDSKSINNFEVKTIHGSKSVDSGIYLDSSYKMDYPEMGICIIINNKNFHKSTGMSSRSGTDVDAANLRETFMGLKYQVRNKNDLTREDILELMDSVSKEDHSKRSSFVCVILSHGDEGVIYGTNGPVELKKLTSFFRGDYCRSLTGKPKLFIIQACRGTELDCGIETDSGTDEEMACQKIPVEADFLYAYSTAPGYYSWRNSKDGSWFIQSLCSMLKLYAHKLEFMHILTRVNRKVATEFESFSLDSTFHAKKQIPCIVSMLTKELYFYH

[10] = tested on: J774.A1; test: Inhibition of pyroptosis in mouse J774.A1 cells assessed as reduction in LDH release at 0.5 to 2 uM pretreated with LPS for 3 hrs followed by compound addition in presence of nigericin; format: functional, cell-based; conditions: dose 0.5-2 µM
[11] = tested on: J774.A1; test: Inhibition of pyroptosis in mouse J774.A1 cells assessed as reduction in caspase-1 to GSDMD interaction at 0.5 uM pretreated with LPS for 3 hrs followed by compound addition in presence of nigericin by immunoprecipitation analysis; format: functional, cell-based
[12] = target: T3, Caspase-7 (Mus musculus) (UniProt P97864); test: Inhibition of cisplatin induced caspase-7 activation in mouse J774.A1 cells at 0.5 uM preincubated for 30 mins followed by cisplatin addition and incubated overnight; format: cell-based
T3 sequence (whole entry): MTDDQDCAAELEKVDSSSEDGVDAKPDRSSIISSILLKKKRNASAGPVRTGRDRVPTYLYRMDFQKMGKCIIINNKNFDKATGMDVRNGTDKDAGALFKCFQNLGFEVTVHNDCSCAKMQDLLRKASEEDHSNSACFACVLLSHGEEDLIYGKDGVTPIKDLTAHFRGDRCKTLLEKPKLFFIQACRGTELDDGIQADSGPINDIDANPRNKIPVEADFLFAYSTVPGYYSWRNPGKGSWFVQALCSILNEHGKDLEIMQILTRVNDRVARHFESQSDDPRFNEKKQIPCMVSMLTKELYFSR

[13] = tested on: J774.A1; test: Downregulation of IKKalpha/beta phosphorylation in mouse J774.A1 cells preincubated for 30 mins followed by LPS addition and measured after 2 hrs by Western blotting analysis; format: functional, cell-based; conditions: time 2.5 hrs
[14] = tested on: J774.A1; test: Inhibition of pyroptosis in mouse J774.A1 cells assessed as reduction in number of annexin V and PI positive cells pretreated with LPS for 3 hrs followed by compound addition in presence of nigericin by flow cytometry analysis; format: functional, cell-based
[15] = tested on: J774.A1; test: Downregulation of inhibitor kappa B-alpha phosphorylation in mouse J774.A1 cells preincubated for 30 mins followed by LPS addition and measured after 2 hrs by Western blotting analysis; format: functional, cell-based; conditions: time 2.5 hrs
[16] = tested on: J774.A1; test: Inhibition of pyroptosis in mouse J774.A1 cells assessed as reduction in cleaved GSDMD expression pretreated with LPS for 3 hrs followed by compound addition in presence of nigericin by Western blotting analysis; format: functional, cell-based
[17] = target: T4, Caspase-1 (Mus musculus) (UniProt P29452); test: Binding affinity to caspase-1 in LPS-induced mouse J774.A1 cells assessed as reduction in IL-1beta level at 0.5 uM preincubated with compound followed by nigericin addition; format: cell-based; conditions: time 3-24 hrs
T4 sequence (whole entry): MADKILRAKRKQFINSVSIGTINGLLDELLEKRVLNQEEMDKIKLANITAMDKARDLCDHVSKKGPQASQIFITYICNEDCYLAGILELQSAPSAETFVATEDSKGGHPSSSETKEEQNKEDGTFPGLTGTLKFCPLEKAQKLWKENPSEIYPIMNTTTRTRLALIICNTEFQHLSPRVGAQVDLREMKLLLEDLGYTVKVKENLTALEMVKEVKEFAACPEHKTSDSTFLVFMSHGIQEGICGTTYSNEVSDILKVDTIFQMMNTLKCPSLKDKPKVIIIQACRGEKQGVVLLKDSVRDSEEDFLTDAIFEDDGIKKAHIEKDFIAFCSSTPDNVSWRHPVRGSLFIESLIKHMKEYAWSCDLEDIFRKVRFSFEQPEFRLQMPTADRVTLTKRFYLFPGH

[18] = tested on: J774.A1; test: Downregulation of p65 phosphorylation in mouse J774.A1 cells preincubated for 30 mins followed by LPS addition and measured after 2 hrs by Western blotting analysis; format: functional, cell-based; conditions: time 2.5 hrs
[19] = tested on: Mus musculus; test: Anti-inflammatory activity in MSU/C18:0 free fatty acid induced ip dosed Kunming mouse model of gouty arthritis assessed as reduction in joint swelling preadministered with compound for 30 mins followed by MSU/C18:0 free fatty acid injection and measured after 24 hrs; format: functional, organism-based; conditions: time 24.5 hrs
[20] = target: T1, Caspase-1 (Homo sapiens); test: Inhibition of recombinant human caspase-1 expressed in Escherichia coli BL21 cells at 5 to 50 uM using […] as substrate incubated for 30 mins; conditions: dose 5-50 µM
[21] = target: NACHT, LRR and PYD domains-containing protein 3 (Mus musculus) (UniProt Q8R4B8); test: Inhibition of NLRP3 inflammasome activation activation in LPS/nigericin stimulated mouse J774.A1 cells assessed as reduction in IL-1beta production pretreated with LPS for 3 hrs prior to compound addition for 30 mins followed by nigericin addition and measured after 45 mins by ELISA; format: cell-based; conditions: dose 0.001-2000 nM, time 75.0 min
[22] = target: T3, Caspase-7 (Mus musculus); test: Inhibition of cisplatin induced caspase-7 activation in mouse J774.A1 cells at 1 uM preincubated for 30 mins followed by cisplatin addition and incubated overnight; format: cell-based
[23] = target: T2, Caspase-3 (Mus musculus); test: Inhibition of cisplatin induced caspase-3 activation in mouse J774.A1 cells at 1 uM preincubated for 30 mins followed by cisplatin addition and incubated overnight; format: cell-based
[24] = target: T1, Caspase-1 (Homo sapiens); test: Inhibition of recombinant human caspase-1 expressed in Escherichia coli BL21 cells assessed as remaining activity at 10 uM using […] as substrate incubated for 30 mins relative to control
[25] = target: T1, Caspase-1 (Homo sapiens); test: Inhibition of recombinant human caspase-1 expressed in Escherichia coli BL21 cells assessed as remaining activity at 100 uM using […] as substrate incubated for 30 mins relative to control
[26] = target: T5, Caspase-1 (Homo sapiens, UniProt P29466); test: Inhibition of recombinant human caspase-1 expressed in Escherichia coli BL21 cells using […] as substrate incubated for 30 mins
T5 sequence (P29466 whole entry): T1 sequence (whole entry)

Sequence of NACHT, LRR and PYD domains-containing protein 3 (Mus musculus) (Q8R4B8 whole entry, the tested form may be a part): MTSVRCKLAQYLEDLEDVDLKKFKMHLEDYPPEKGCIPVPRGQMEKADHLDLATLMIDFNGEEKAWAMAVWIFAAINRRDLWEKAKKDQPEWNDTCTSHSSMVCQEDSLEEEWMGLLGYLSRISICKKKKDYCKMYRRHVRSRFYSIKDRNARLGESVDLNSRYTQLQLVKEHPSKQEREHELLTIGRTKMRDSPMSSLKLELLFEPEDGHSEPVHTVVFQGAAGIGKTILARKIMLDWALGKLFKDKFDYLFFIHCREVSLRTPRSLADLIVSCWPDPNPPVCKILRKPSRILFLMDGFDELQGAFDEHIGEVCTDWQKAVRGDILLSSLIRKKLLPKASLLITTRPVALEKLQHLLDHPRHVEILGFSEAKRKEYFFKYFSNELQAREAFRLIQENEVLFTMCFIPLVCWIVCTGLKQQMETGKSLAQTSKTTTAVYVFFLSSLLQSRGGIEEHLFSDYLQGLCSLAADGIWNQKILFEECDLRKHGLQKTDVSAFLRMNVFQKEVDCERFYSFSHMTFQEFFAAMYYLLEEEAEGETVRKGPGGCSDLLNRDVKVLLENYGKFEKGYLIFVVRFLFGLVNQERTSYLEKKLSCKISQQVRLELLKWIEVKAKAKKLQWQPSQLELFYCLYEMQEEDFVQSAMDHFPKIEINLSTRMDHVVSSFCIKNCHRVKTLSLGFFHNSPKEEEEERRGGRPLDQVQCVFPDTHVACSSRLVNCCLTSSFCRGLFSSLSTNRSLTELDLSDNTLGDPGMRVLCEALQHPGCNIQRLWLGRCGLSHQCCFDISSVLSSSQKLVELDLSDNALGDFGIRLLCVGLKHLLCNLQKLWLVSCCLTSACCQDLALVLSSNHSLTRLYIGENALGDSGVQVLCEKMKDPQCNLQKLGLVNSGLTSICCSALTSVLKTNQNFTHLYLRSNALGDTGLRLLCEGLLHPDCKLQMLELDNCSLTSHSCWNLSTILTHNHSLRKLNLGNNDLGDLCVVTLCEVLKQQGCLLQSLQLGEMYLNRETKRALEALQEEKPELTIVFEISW
Sequence of Thioredoxin (Mus musculus) (P10639 whole entry): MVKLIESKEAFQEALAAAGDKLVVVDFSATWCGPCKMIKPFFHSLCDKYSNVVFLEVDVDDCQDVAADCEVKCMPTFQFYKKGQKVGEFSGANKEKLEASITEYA
Sequence of NFU1 iron-sulfur cluster scaffold homolog, mitochondrial (Mus musculus) (Q9QZ23 whole entry): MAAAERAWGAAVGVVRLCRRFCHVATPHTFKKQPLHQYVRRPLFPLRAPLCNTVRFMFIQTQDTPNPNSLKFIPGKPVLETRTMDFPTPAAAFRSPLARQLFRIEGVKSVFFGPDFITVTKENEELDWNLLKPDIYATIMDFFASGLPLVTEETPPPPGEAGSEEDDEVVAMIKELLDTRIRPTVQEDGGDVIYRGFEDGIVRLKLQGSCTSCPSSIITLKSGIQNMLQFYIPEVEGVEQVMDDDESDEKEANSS

CC(C)(C)OC(=O)[C@@H]1CC=C[C@@H](SC#N)[C@@]12C(=O)Nc1ccc(NC(=O)CCCC[C@@H]3SC[C@@H]4NC(=O)N[C@@H]43)cc12
inhibition [1]: inactive

CC(C)(C)OC(=O)[C@@H]1C[C@@H](N=C=S)C=C[C@@]12C(=O)Nc1ccc(NC(=O)CCCC[C@@H]3SC[C@@H]4NC(=O)N[C@@H]43)cc12
inhibition [1]: Dose-Dependent Effect | Activity [2]: Active | Activity [3]: Active | Activity [4]: Active | Activity [5]: Active | Activity [6]: Active | inhibition [7]: Active | Activity [8]: inactive

CCO[C@@H]1OC(=O)C[C@@H]1NC(=O)[C@@H]1CCCN1C(=O)[C@@H](NC(=O)c1ccc(N)c(Cl)c1)C(C)(C)C
inhibition [9]: inactive | inhibition [10]: Active | inhibition [11]: Active | inhibition [12]: inactive | Activity [13]: Active | inhibition [14]: Active | Activity [15]: Active | inhibition [16]: Active | Activity [17]: inactive | Activity [18]: Active

COc1cc2c(c(OC)c1OC)-c1ccc(OC)c(=O)cc1[C@@H](NC(C)=O)CC2
Activity [19]: Active

COc1ccc2c(c1)[C@@]1(C(=O)N2C(=O)OCc2ccccc2)[C@@H](SC#N)C=CC[C@H]1C(=O)OC(C)(C)C
inhibition (active/not active) [20]: inactive

S=C=NCc1ccccc1
inhibition [21]: Dose-Dependent Effect | inhibition (active/not active) [20]: Active

COC(=O)C[C@H](NC(=O)[C@H](C)NC(=O)[C@@H](NC(=O)OCc1ccccc1)C(C)C)C(=O)CF (Cbz-Val-Ala-Asp(OMe)-CH2F)
inhibition [22]: Active | inhibition [23]: Active

COc1ccc2c(c1)[C@]1(C=C[C@@H](N=C=S)C[C@H]1C(=O)OC(C)(C)C)C(=O)N2C(=O)OCc1ccccc1
inhibition (active/not active) [20]: Active

C[S+]([O-])CCCCN=C=S (stereo unspecified)
inhibition [21]: Dose-Dependent Effect | inhibition (active/not active) [20]: inactive

S=C=NCCc1ccccc1
inhibition [21]: Dose-Dependent Effect | inhibition (active/not active) [20]: inactive

CC(C)(C)OC(=O)[C@@H]1C[C@@H](N=C=S)C=C[C@@]12C(=O)N(C(=O)OCc1ccccc1)c1cc(F)c(F)cc12
Activity [24]: 73% | Activity [25]: 21% | IC50 [26]: 43.6 µM

CC(C)(C)OC(=O)[C@@H]1C[C@@H](N=C=S)C=C[C@@]12C(=O)N(C(=O)OCc1ccccc1)c1ccc(F)cc12
Activity [24]: 81% | Activity [25]: 17% | IC50 [26]: 80.7 µM

COc1ccc2c(c1)[C@]1(C=C[C@H](N=C=S)C[C@H]1C(=O)OC(C)(C)C)C(=O)N2
Activity [24]: 75% | Activity [25]: 10% | IC50 [26]: 40.5 µM

COc1ccc2c(c1)[C@@]1(C=C[C@@H](N=C=S)C[C@@H]1C(=O)OC(C)(C)C)C(=O)N2C(=O)OCc1ccccc1
inhibition (active/not active) [20]: Active

CC(C)(C)OC(=O)[C@@H]1C[C@@H](N=C=S)C=C[C@@]12C(=O)N(C(=O)OCc1ccccc1)c1ccc(Br)cc12
Activity [24]: 92% | Activity [25]: 31% | IC50 [26]: 89.8 µM

CC(C)(C)OC(=O)[C@@H]1C[C@@H](N=C=S)C=C[C@@]12C(=O)N(C(=O)OCc1ccccc1)c1cc(Br)ccc12
Activity [24]: 71% | Activity [25]: 20% | IC50 [26]: 15.4 µM
